Source: ChEMBL document CHEMBL1133400, “Synthesis and pharmacology of a novel pyrrolo[2,1,5-cd] indolizine (NNC 45-0095), a high affinity non-steroidal agonist for the estrogen receptor” (Bioorg Med Chem Lett, 2000)
pEC50: −log10 of the molar value.

Key:
Ishikawa [1] = experiment: Stimulation of endometrial activity in Ishikawa human endometrial adenocarcinoma cells; format: functional, cell-based
Ishikawa [2] = experiment: Percentp stimulation of alkaline phosphate activity in Ishikawa human endometrial adenocarcinoma cells relative to Moxestrol; format: functional
Estrogen receptor [3] = target: Estrogen receptor (Mus musculus, UniProt O08537+P19785); experiment: Uterotrophic activity in immature mouse; format: functional, tissue-based, Uterus
[4] = target: Estrogen receptor (Mus musculus) (UniProt O08537+P19785); experiment: Percent maximal relative agonism for uterotrophic activity in immature mouse model; format: functional
Chain of Estrogen receptor (Mus musculus) (O08537 whole entry, looked up): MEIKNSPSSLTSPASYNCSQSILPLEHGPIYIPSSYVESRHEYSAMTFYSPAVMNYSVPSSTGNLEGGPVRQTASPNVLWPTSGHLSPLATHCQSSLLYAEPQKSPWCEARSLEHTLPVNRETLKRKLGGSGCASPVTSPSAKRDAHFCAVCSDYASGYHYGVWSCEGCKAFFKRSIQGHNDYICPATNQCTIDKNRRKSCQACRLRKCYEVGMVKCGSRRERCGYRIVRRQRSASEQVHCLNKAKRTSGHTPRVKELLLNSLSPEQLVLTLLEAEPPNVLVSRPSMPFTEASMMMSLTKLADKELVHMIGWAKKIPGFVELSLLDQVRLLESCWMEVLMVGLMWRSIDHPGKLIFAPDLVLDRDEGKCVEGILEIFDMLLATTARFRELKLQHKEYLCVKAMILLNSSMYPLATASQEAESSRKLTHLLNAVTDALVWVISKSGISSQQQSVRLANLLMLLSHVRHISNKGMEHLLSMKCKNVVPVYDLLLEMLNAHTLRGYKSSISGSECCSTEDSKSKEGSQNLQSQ
Chain of Estrogen receptor (Mus musculus) (P19785 whole entry, looked up): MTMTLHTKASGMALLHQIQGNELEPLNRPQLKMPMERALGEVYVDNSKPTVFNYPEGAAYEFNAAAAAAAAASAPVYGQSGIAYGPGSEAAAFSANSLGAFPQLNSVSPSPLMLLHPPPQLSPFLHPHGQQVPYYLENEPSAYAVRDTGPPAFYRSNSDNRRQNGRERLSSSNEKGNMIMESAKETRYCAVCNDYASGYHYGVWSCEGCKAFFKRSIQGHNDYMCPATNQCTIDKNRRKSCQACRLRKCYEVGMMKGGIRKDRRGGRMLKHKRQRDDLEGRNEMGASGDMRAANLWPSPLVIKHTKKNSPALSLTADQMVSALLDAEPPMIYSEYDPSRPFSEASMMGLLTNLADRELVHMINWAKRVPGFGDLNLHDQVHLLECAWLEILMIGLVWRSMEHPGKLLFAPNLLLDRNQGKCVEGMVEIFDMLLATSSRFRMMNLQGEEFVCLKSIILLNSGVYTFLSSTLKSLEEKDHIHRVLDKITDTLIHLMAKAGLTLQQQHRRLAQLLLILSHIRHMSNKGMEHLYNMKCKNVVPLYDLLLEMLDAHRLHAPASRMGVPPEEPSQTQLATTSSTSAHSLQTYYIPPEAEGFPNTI

Estrogen receptor [5] = target: Estrogen receptor (Homo sapiens, UniProt Q92731+P03372); experiment: Binding affinity for estrogen receptor of rabbit uterine […] muscle tissue; format: protein assay, Oryctolagus cuniculus; conditions: target entry is the homologue from another species

SMILES	pEC50 (Ishikawa [1])	Emax (Ishikawa [2])	EC50 (Estrogen receptor [3])	Activity [4]	IC50 (Estrogen receptor [5])
CCc1c(-c2ccc(O)cc2)c2ccc3cccc1n32	7.89	105%	0.96 nM/g	76%	–
C#C[C@]1(O)CC[C@H]2C3CCc4cc(O)ccc4[C@H]3[C@@H](OC)C[C@@]21C (single isomer, unassigned) [MOXESTROL]	10.00	100%	–	–	2.5 nM
